Columns and labels:
Assay in all cases: relative viability (nuclei count vs DMSO), 5 days (fraction); higher = more cells survive
Masitinib + Olaparib = compound: Cc1ccc(NC(=O)c2ccc(CN3CCN(C)CC3)cc2)cc1Nc1nc(-c2cccnc2)cs1 [Masitinib] + O=C(c1cc(Cc2n[nH]c(=O)c3ccccc23)ccc1F)N1CCN(C(=O)C2CC2)CC1 [Olaparib] (partner 8 µM)
How it was run: (§1)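 One day after seeding in 1536-well plates, lung cancer cell lines were dosed by pin tool. Dosing was either single-drug or a fixed anchor-drug dose plus five library-drug doses (not always all listed) in √10 steps. After 5 days, nuclei were stained in one fix-and-stain step and counted on 4× images, and relative viability is the nuclei count of treated wells over that of vehicle wells, given as the median of duplicate plates.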

Masitinib + Crizotinib = compound: Cc1ccc(NC(=O)c2ccc(CN3CCN(C)CC3)cc2)cc1Nc1nc(-c2cccnc2)cs1 [Masitinib] + C[C@@H](Oc1cc(-c2cnn(C3CCNCC3)c2)cnc1N)c1c(Cl)ccc(F)c1Cl [Crizotinib] (partner 1 µM)
How it was run: as §1

[1] = compound: CC1=CC(=CC=C1)NC2=NC(=CS2)C3=CC=NC=C3 + C[C@]1(O)C[C@@H](c2nc(-c3ccc4ccc(-c5ccccc5)nc4c3)c3c(N)nccn32)C1 [Linsitinib] (partner 1 µM)
How it was run: as §1

Masitinib + Pemetrexed = compound: Cc1ccc(NC(=O)c2ccc(CN3CCN(C)CC3)cc2)cc1Nc1nc(-c2cccnc2)cs1 [Masitinib] + Nc1nc2[nH]cc(CCc3ccc(C(=O)N[C@@H](CCC(=O)O)C(=O)O)cc3)c2c(=O)[nH]1 [Pemetrexed] (partner 0.2 µM)
How it was run: as §1

Cell Line	relative viability (Masitinib + Olaparib; first compound 0.01 µM)	relative viability (Masitinib + Olaparib; first compound 0.03162 µM)	relative viability (Masitinib + Olaparib; first compound 0.1 µM)	relative viability (Masitinib + Olaparib; first compound 0.3162 µM)	relative viability (Masitinib + Olaparib; first compound 1 µM)	relative viability (Masitinib + Crizotinib; first compound 0.01 µM)	relative viability (Masitinib + Crizotinib; first compound 0.03162 µM)	relative viability (Masitinib + Crizotinib; first compound 0.1 µM)	relative viability (Masitinib + Crizotinib; first compound 0.3162 µM)	relative viability (Masitinib + Crizotinib; first compound 1 µM)	relative viability ([1]; first compound 0.08 µM)	relative viability ([1]; first compound 0.253 µM)	relative viability ([1]; first compound 0.8 µM)	relative viability ([1]; first compound 2.53 µM)	relative viability ([1]; first compound 8 µM)	relative viability (Masitinib + Pemetrexed; first compound 0.01 µM)	relative viability (Masitinib + Pemetrexed; first compound 0.03162 µM)	relative viability (Masitinib + Pemetrexed; first compound 0.1 µM)	relative viability (Masitinib + Pemetrexed; first compound 0.3162 µM)	relative viability (Masitinib + Pemetrexed; first compound 1 µM)
PC-3 [JPC-3]	0.985	1.11	1.22	0.932	1.11	1.02	0.974	0.975	0.968	1.01	0.888	0.878	0.772	0.903	0.91	1.04	0.733	1.06	1.37	0.87
NCI-H661	0.722	0.779	0.802	0.731	0.711	0.737	1.2	0.964	0.93	0.844	0.589	0.577	0.577	0.63	0.643	0.9	0.913	0.946	0.939	0.895
NCI-H2087	0.73	0.583	0.63	0.523	0.7	0.669	0.913	0.899	0.891	0.951	0.934	0.862	0.996	0.888	0.798	0.642	0.666	0.66	0.555	0.703
NCI-H1755	0.769	0.832	0.893	0.849	0.755		0.804	0.866	0.816	0.828	0.949	0.886	0.857	0.911	0.677	0.357	0.411	0.427	0.446	0.463
